Measurements as given in ChEMBL document CHEMBL1142476, “Inhibition of Candida albicans isocitrate lyase activity by sesterterpene sulfates from the tropical sponge Dysidea sp” (Bioorg Med Chem Lett, 2008).
In brackets after ≈: the same amount, converted by molar mass.

Tests used:
Bacillus subtilis = experiment: Antibacterial activity against Bacillus subtilis ATCC 6633; type: functional
Proteus vulgaris = experiment: Antibacterial activity against Proteus vulgaris ATCC 3851; type: functional
Micrococcus luteus = experiment: Antibacterial activity against Micrococcus luteus IFC12708; type: functional
Isocitrate lyase = Isocitrate lyase (Candida albicans, UniProt Q9P8Q7); experiment: Inhibition of candida albicans isocitrate lyase
Candida albicans = experiment: Antifungal activity against candida albicans ATCC 10231; type: functional, organism-based
Salmonella typhimurium = experiment: Antibacterial activity against Salmonella Typhimurium ATCC 14028; type: functional, Salmonella enterica subsp. enterica serovar Typhimurium; details: Salmonella enterica
Staphylococcus aureus = experiment: Antibacterial activity against Staphylococcus aureus ATCC 6538; type: functional
Escherichia coli = experiment: Antibacterial activity against Escherichia coli ATCC 11775; type: functional

Isocitrate lyase, sequence (Q9P8Q7 whole entry): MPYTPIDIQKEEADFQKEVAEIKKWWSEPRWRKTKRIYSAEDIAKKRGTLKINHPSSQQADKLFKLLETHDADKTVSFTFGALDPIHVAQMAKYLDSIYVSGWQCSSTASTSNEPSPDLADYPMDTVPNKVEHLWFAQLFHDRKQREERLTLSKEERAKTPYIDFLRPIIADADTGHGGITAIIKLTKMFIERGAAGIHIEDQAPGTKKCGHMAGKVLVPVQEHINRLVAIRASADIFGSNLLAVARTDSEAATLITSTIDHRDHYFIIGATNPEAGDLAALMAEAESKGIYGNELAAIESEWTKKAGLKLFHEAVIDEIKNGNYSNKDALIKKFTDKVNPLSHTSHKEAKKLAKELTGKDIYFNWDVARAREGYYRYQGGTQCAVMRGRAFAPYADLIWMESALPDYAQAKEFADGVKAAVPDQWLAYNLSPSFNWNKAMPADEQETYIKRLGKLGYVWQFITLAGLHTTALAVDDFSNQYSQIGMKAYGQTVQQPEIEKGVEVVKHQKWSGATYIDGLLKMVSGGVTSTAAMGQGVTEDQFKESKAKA

Row | Structure (SMILES) | MIC (Bacillus subtilis) [µg/mL] | MIC (Proteus vulgaris) [µg/mL] | MIC (Micrococcus luteus) [µg/mL] | IC50 (Isocitrate lyase) [µM] | IC50 (Candida albicans) [µM] | MIC (Salmonella typhimurium) [µg/mL] | MIC (Staphylococcus aureus) [µg/mL] | MIC (Escherichia coli) [µg/mL]
1 | CC1=CC[C@H]2C(C)(C)CCC[C@]2(C)[C@H]1C[C@@H](OS(=O)(=O)O)[C@H](C)CCC/C(C)=C/Cc1cc(O)ccc1O.CN(C)C(=N)N | 6.25 | 12.5 | > 100 | 158 | 158 | 50 | 50 | > 100
2 | O=C(O)CC[N+](=O)[O-] |  |  |  | 50.7 | 845 |  |  | 
3 | CN(C)C(=N)N.C[C@@H]1CCC2=C(CCCC2(C)C)[C@@]1(C)CC[C@H](CCCc1ccoc1)COS(=O)(=O)O | 6.25 | 12.5 | 50 | 33.8 | 186 | > 100 | 50 | > 100
4 | CC1=CCC[C@@H](C)[C@]1(C)CC/C(C)=C/CCC(CCCc1ccoc1)COS(=O)(=O)O.CN(C)C(=N)N (stereo not given in full) | 6.25 | 25 | > 100 | 186 | 186 | > 100 | > 100 | > 100
5 | CC1=CC[C@H]2C(C)(C)CCC[C@]2(C)[C@H]1C/C=C(\C)CCC/C(C)=C/Cc1cc(O)ccc1O | 3.25 (≈ 7.21 µM) | 6.25 (≈ 13.9 µM) | 25 (≈ 55.5 µM) | 76.8 | 222 | 25 (≈ 55.5 µM) | 100 (≈ 222 µM) | > 100
6 | C=C1CC[C@H]2C(C)(C)CCC[C@]2(C)[C@H]1C[C@@H](OS(=O)(=O)[O-])[C@H](C)CCC/C(C)=C/Cc1cc(O)ccc1O.[Na+] | 1.56 | 6.25 | 50 | 71 | 131 | 50 | 25 | > 100
7 | C=C1CCC[C@@H]2[C@@](C)(CC[C@H](CCCc3ccoc3)COS(=O)(=O)O)[C@H](C)CC[C@]12C.CN(C)C(=N)N | 12.5 | 6.25 | 25 | 31.3 | 186 | 25 | 50 | > 100
8 | C[C@@H]1[C@H](O)[C@@H](C)/C=C/C=C/C=C/C=C/C=C/C=C/C=C/[C@H](O[C@@H]2O[C@H](C)[C@@H](O)[C@H](N)[C@@H]2O)C[C@@H]2O[C@](O)(C[C@@H](O)C[C@@H](O)[C@H](O)CC[C@@H](O)C[C@@H](O)CC(=O)O[C@H]1C)C[C@H](O)[C@H]2C(=O)O [AMPHOTERICIN B] |  |  |  |  | 1.7 |  |  | 
9 | CC1(C)S[C@@H]2[C@H](NC(=O)[C@H](N)c3ccccc3)C(=O)N2[C@H]1C(=O)O [AMPICILLIN] | 1.56 (≈ 4.46 µM) | 1.56 (≈ 4.46 µM) | 1.56 (≈ 4.46 µM) |  |  | 1.56 (≈ 4.46 µM) | 3.12 (≈ 8.93 µM) | 6.25 (≈ 17.9 µM)
10 | CC1=CC[C@H]2C(C)(C)CCC[C@]2(C)[C@H]1C[C@@H](OS(=O)(=O)[O-])[C@H](C)CCC/C(C)=C/Cc1cc(O)ccc1O.[Na+] [HALISULFATE 1] | 1.56 | 6.25 | 50 | 70.2 | 131 | 50 | 25 | > 100
